Experimental data reported in EPA's ToxValDB 9.5 (doi:10.2903/j.efsa.2010.1631).

Key:
Anas platyrhynchos = conditions: acute; oral; unspecified; mortality
Coturnix coturnix = conditions: acute; oral; mortality
Tagia sp. = conditions: acute; duration: 14 days; mortality
[1] = chronic/long-term; development
Bibionidae = conditions: chronic/long-term; duration: 28 days
Mus musculus = conditions: acute; oral; mortality
Cyprinus carpio = conditions: acute; duration: 96 hours; mortality
Daphnia magna = conditions: chronic/long-term; duration: 21 days; reproduction
Canidae = conditions: oral, Dog Other, body weight
Apis mellifera = conditions: acute; duration: 48 hours; dermal; mortality
Pimephales promelas = conditions: chronic/long-term; duration: 30 days; growth
Aphidius rhopalosiphi = experiment: LR50; higher = less toxic; conditions: not reported; mortality

In the case of `CC(=O)O.CCCCCCCCCCCCN=C(N)N` [Dodecylguanidine acetate], the LD50 (Anas platyrhynchos) is reported as 857 mg/kg-day, the LD50 (Coturnix coturnix) is reported as 981 mg/kg-day and the LC50 (Tagia sp.) is reported as 547 mg/kg. It also gave an NOEC (Tagia sp.) of 171 mg/kg, an NOEL [1] of 45 mg/kg-day and an NOEC (Bibionidae) of 3.2 mg/L. For the same molecule, the LD50 (Mus musculus) was 1350 mg/kg-day, the LD50 (Rattus norvegicus; acute, oral, mortality) was 851 mg/kg-day and the NOEL (Rattus norvegicus; chronic, body weight) was 18.6 mg/kg-day. The NOAEL (Rattus norvegicus; reproduction developmental, body weight) was 10 mg/kg-day, the LC50 (Cyprinus carpio) was 0.6 µg/mL and the NOEC (Daphnia magna) was 0.0044 mg/L. It also gave an NOAEL (Canidae; chronic, duration: 1 years) of 10 mg/kg-day, an NOAEL (Canidae; subchronic, duration: 90 days) of 10 mg/kg-day and an LD50 (Apis mellifera) greater than 100 µg/piece. It also gave an NOEC (Pimephales promelas) of 0.099 mg/L and an LR50 (Aphidius rhopalosiphi) greater than 1800 g/ha.
